The numbers were not newly measured in EP4585059A1, “EFFERVESCENT POUCHED PRODUCT” (Nicoventures Trading Limited, priority 2024, dated 2025), which cites them from elsewhere.

The conditions of the first data set: water / aqueous environment (e.g., saliva).
For the compound `CC(/C=C/C=C(C)/C=C/C(=O)O)=C\C=C\C=C(C)\C=C\C=C(C)\C=C\C(=O)O` (stereo in doubt) [norbixin, (2E,4E,6E,8E,10E,12E,14E,16E,18E)-4,8,13,17-tetramethylicosa-2,4,6,8,10,12,14,16,18-nonaenedioic acid], the solubility in water entry is reported as “water-soluble”.
Regarding `C=C(C)[C@@H]1CCC(C)=C[C@H]1c1c(O)cc(CCCCC)cc1O` [CBD, cannabidiol], the solubility in water result is listed as “insoluble”.
As for `COC(=O)/C=C/C(C)=C\C=C\C(C)=C\C=C\C=C(C)\C=C\C=C(C)\C=C\C(=O)O` [bixin, (2E,4E,6E,8E,10E,12E,14E,16Z,18E)-20-methoxy-4,8,13,17-tetramethyl-20-oxoicosa-2,4,6,8,10,12,14,16,18-nonaenoic acid], the solubility in water result is listed as “insoluble in water”.

The conditions of another data set: Values obtained from PubChem or calculated.
With isopropyl benzoic acid, the “log(P)*” value was 3.5.
ethyl benzoic acid: the “log(P)*” value was 2.9.
Regarding `CC(C)[C@@H]1CC[C@@H](C)C[C@H]1OC(=O)CCC(=O)O` [monomenthyl succinate], the “log(P)*” value is listed as 3.
